{
  "source": "patent US20170087165A1",
  "about": "“METHODS FOR REDUCING THE OCCURRENCE OF PRETERM DELIVERY AND OTHER PREGNANCY-RELATED CONDITIONS” (Lumara Health IP, Ltd., priority 2009, published 2017)",
  "key": {"[1]": {"system": "pregnant women having a documented history of spontaneous preterm delivery", "conditions": "cited from earlier work"}, "[2]": {"system": "children of the mothers who participated in the trial", "conditions": "cited from earlier work"}, "[3]": {"system": "women who smoked during pregnancy", "assay": "Analysis of the Example 1 trial by smoking status during pregnancy", "type": "in vivo, human", "method": "(§1) In a double-blind, placebo-controlled trial, 463 pregnant women having a documented history of spontaneous preterm delivery received weekly injections of 250 mg […] caproate (17-HPC) or an inert castor oil placebo beginning at 16 to 20weeks of gestation and continuing until delivery or 36 weeks of gestation, whichever occurred first. […] A 2:1 ratio was used for the assignment of women to the 17-HPC or placebo group, since those in the placebo group would be subjected to painful injections on a weekly basis with no possibility of direct benefit. Thus, there were 310 women in the 17-HPC group and 153 women in the placebo group. The baseline characteristics of the women in the two groups were similar in terms of the mean duration of gestation of the qualifying delivery, the mean duration of gestation at the time of randomization, race or ethnic group, marital status, body mass index (BMI), educational level, smoking status, and substance use during pregnancy. The women in the placebo group had had more previous preterm deliveries (mean of 1.6 vs. 1.4 in the 17-HPC group). 91.5% of the study participants were compliant with all of their injections, noncompliance being defined as a gap of 10 days or more between any two injections, and there was no difference in the rate of compliance between the placebo group and the 17-HPC group. Preterm delivery was defined as delivery at less than 37 completed weeks (259 days) of gestation, calculated on the basis of the date of the last menstrual period and ultrasonography results.\n(§2) In the clinical trial described in Example 1, 22.6% ([…]) of subjects in the 17-HPC group and 19.6% (30/153) of subjects in the placebo group smoked during pregnancy. […] Thus, it was apparent in the data that smoking increased the risk f or preterm delivery, measured either as delivery prior to 37 weeks of gestation."}, "[4]": {"assay": "Analysis of the Example 1 trial by smoking status during pregnancy", "type": "in vivo, human", "conditions": "women who smoked during pregnancy; 95% CI 0.0830, 0.5297", "method": "as §1, §2"}},
  "note": "Several values for one entry are separate records, joined by “and”; a condition that tells them apart may be missing. Identical values can stand only once.",
  "data": [
    {"molecule": "CCCCCC(=O)O[C@]1(C(C)=O)CC[C@H]2[C@@H]3CCC4=CC(=O)CC[C@]4(C)[C@H]3CC[C@@]21C", "note": "[17-HPC, 17alpha-hydroxyprogesterone caproate]", "values": [
      {"measurement": "incidence of preterm delivery at less than 37 weeks of gestation", "setting": "[1]; 250 mg weekly injection from 16-20 weeks of gestation until delivery or 36 weeks, 111/306, placebo 54.9%", "result": 36.3, "unit": "%"},
      {"measurement": "incidence of delivery at less than 32 weeks", "setting": "[1]; 250 mg weekly, 35/306, P=0.02", "result": 11.4, "unit": "%"},
      {"measurement": "incidence of delivery at less than 35 weeks of gestation", "setting": "[1]; 250 mg weekly, 63/306, placebo 30.7%, P=0.02", "result": 20.6, "unit": "%"},
      {"measurement": "incidence of necrotizing enterocolitis", "setting": "[1]; infants of treated women, 0/305, placebo 2.6%, P=0.01", "result": 0, "unit": "%"},
      {"measurement": "incidence of intraventricular hemorrhage of any grade", "setting": "[1]; infants of treated women, 4/305, placebo 5.2%", "result": 1.3, "unit": "%"},
      {"measurement": "incidence of birth weight of less than 1500 g", "setting": "[1]; infants of treated women, 26/301, placebo 13.9%, P=0.08, non-significant", "result": 8.6, "unit": "%"},
      {"measurement": "incidence of need for supplemental oxygen", "setting": "[1]; infants of treated women, 45/303, placebo 23.8%", "result": 14.9, "unit": "%"},
      {"measurement": "incidence of birth weight of less than 2500 g", "setting": "[1]; infants of treated women, 82/301, placebo 41.1%, P=0.003", "result": 27.2, "unit": "%"},
      {"measurement": "rate of intraventricular hemorrhage of grades 3 to 4", "setting": "[1]; versus placebo group", "result": "no significant difference between groups"},
      {"measurement": "rates of infant death, transient tachypnea in the newborn, distress syndrome, bronchopulmonary dysplasia, need for ventilatory support, retinopathy of prematurity, and patent ductus arteriosus", "setting": "[1]; versus placebo group", "result": "slightly but not significantly lower"},
      {"measurement": "women needed to be treated to prevent one delivery before 32 weeks of gestation", "setting": "[1]; women with similar risk level", "result": 12, "unit": "women"},
      {"measurement": "health status or physical examination of the children", "setting": "[2]; mean age at follow up 48 months, 194 children in 17-HPC group vs 84 placebo", "result": "No significant differences"},
      {"measurement": "Ages and Stages Questionnaire (development in five areas)", "setting": "[2]; mean age at follow up 48 months, versus placebo", "result": "no difference"},
      {"measurement": "safety for the fetus", "setting": "[2]; weekly intramuscular injection to the mother during second and third trimesters", "result": "appears to be safe for the fetus"},
      {"measurement": "proportion of deliveries at less than 37 weeks of gestation, subjects who did not smoke during pregnancy", "setting": "[3]; not smoking during pregnancy, 92/240, placebo 51.2% (63/123)", "result": 38.3, "unit": "%"},
      {"measurement": "proportion of deliveries at less than 37 weeks of gestation, subjects who smoked during pregnancy", "setting": "[3]; smoking during pregnancy, 23/70, placebo 70% (21/30)", "result": 32.9, "unit": "%"},
      {"measurement": "odds ratio of preterm delivery (<37 weeks) 17-HPC vs placebo", "setting": "[4]", "result": "0.21 and 0.2097"}
    ]}
  ]
}
